PubChem BioAssay AID2060602 (Molecular Pharmacology Branch, DTP, NCI, 2025)
Where “and” joins values, the source holds several entries; their conditions need not be identical. Equal entries are not always repeated.

Tested on: 648629-189-R-J1-PDC complex spheroids viability
Assay: Anticancer human tumor 648629-189-R-J1-PDC patient-derived bladder carcinoma cell line growth inhibition [CLK]
Conditions: for viability, T/C: stronger effect = lower value
Description: A high-throughput screen of multi-cell type tumor spheroids was designed to identify active combinations of […] and targeted small molecules. Complex spheroids include a stromal component modeled by human endothelial cells (HUVEC) and fibroblasts modeled by human mesenchymal stem cells (MSCs). The concentration ranges selected for each drug and investigational agent were based upon clinically achievable concentrations if the clinical Cmax of the agent was known.
Compounds. The drugs and investigational agents: cirtuvivint (SM08502; NSC835563), CC-671 (NSC850746), vemurafenib (NSC761431), tapotoclax (NSC804041), sotorasib (NSC818433), adagrasib (NSC831453), MRTX-1133 (NSC836407), BAY2416964 (NSC825713), copanlisib (NSC816437), inavolisib (NSC800729), abemaciclib (NSC768073), osimertinib (NSC779217), entinostat (NSC756642), eltanexor (KPT-8602, NSC794443), venetoclax (NSC766270), ceralasertib (NSC777638), bortezomib (NSC756655), olaparib (NSC753686), talazoparib (NSC767125), alisertib (NSC759677), peposertib (NSC802822), gemcitabine (NSC613327), 5-fluorouracil (NSC19893), SN-38 (NSC673596), oxaliplatin (NSC266046), paclitaxel (NSC125973), and doxorubicin (NSC123127), were obtained from the National Cancer Institute (NCI) Developmental Therapeutics Program Chemical Repository. The FDA-approved anticancer drug set is available from the Developmental Therapeutics Program at https://dtp.cancer.gov/organization/dscb/obtaining/available plates.htm. […] The stock solutions were prepared in dimethyl sulfoxide (DMSO, Sigma-Aldrich, St. Louis, MO, cat. D2650), except for the platinum complexes which were prepared in saline (Quality Biological, Gaithersburg, MD, cat. 114-055-101), at 800-fold the tested concentration and stored at -70 degrees C prior to their use. All drugs and investigational agents were tested over a range starting from a high concentration at or near the clinical Cmax and decreasing in half-log increments. If the clinical Cmax for an agent had not been determined, the highest concentration tested was 10 microM.
Cell Culture. All cells were maintained in an incubator at 37 degrees C and 5% CO2 with 95% humidity. The PDC lines were cultured according to standard operating procedures established by the NCI PDMR. Briefly, all PDCs were thawed and cultured in Matrigel-coated flasks prepared with a working solution of 1X Ham's F-12 nutrient mix, without supplementation (Invitrogen, Waltham, MA, cat. 11765054), 100 U/mL penicillin-streptomycin (Invitrogen, cat. 15140122), and 2.5% Matrigel (Corning Inc., Corning, NY, cat. 354248) for the first three passages. The 947758-054-R-J2-PDC line was cultured in 6B/Colon 1A media, which includes advanced DMEM/F-12 (Thermo Fisher Scientific, cat. 12634028), 10 mM HEPES (Thermo Fisher Scientific, cat. 15630080), 1X GlutaMAX supplement (Thermo Fisher Scientific, cat. 35050061), 0.1 mg/mL primocin (InvivoGen, cat. ant-pm-2), 10% defined fetal bovine serum, heat inactivated (HyClone Laboratories Inc., cat. SH30070.03HI), 1.25 mM N-Acetyl-L-cysteine (Sigma-Aldrich, cat. A9165), 10 mM nicotinamide (Sigma-Aldrich, cat. N0636), 1X B-27 supplement (Thermo Fisher Scientific, cat. 17504044), 1X N-2 supplement (Thermo Fisher Scientific, cat. 17502048), and 10 microM Y-27632 dihydrochloride (Tocris Bioscience, cat. 1254). The 876862-298-R-J1-PDC was cultured in 6E media, which includes all 6B/Colon 1A media components plus 50% L-WRN conditioned media (ATCC, cat. CRL-3276), 50 ng/mL recombinant human EGF recombinant protein (hEGF; Thermo Fisher Scientific, cat. PHG0311), 10 ng/mL recombinant human fibroblast growth factor 10 (hGFG-10; PeproTech, cat. 100-26), 1 ng/mL recombinant human fibroblast growth factor 2 (hFGF-2; PeproTech, cat. 100-18B), and 1 µM prostaglandin E2 (PGE2; Tocris, cat. 2296). The 227483-062-R1-J1-PDC line was cultured in Panc media, containing all 6E components except hFGF-2, with the addition of 500 nM SB-431542 (Selleckchem, cat. S1067) and 10 nM gastrin (Tocris, cat. 3006). […]
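For viability, T/C in this document: drug exposure lasted seven days before viability readout; 100% = DMSO vehicle control wells.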

Which results are given for CC(=O)O[C@H]1C(=O)[C@@]2(C)[C@H]([C@H](OC(=O)c3ccccc3)[C@]3(O)C[C@H](OC(=O)[C@H](O)[C@@H](NC(=O)c4ccccc4)c4ccccc4)C(C)=C1C3(C)C)[C@]1(OC(C)=O)CO[C@@H]1C[C@@H]2O?
viability, T/C (compound 0.0316 µM): 10.4% and 11.2%; viability, T/C (compound 0.1 µM): 10.1% and 12.7%; viability, T/C (compound 0.316 µM): 10.1% and 11.7%; viability, T/C (compound 1 µM): 12.9% and 13.5%; viability, T/C (compound 3.16 µM): 10.8% and 10.5%; viability, T/C (compound 10 µM): 13.3% and 15.2%; IC50 (curve of compound): < 31.6 nM

COc1ccc([C@@H](O)c2cc(-c3ncnc4cc(N5CCOCC5)ccc34)c(F)cc2Cl)nn1 was tested. Which viability, T/C (compound 0.0316 µM) did it give?
The viability, T/C was 92.5% and 93.4%.

What about the viability, T/C (compound 0.1 µM) of the same compound?
Its viability, T/C is 94.4% and 108%.

And the viability, T/C (compound 0.316 µM)?
Its viability, T/C is 94.7% and 89.7%.

And the viability, T/C (compound 1 µM)?
Its viability, T/C is 75.6% and 85%.

And the viability, T/C (compound 3.16 µM)?
The viability, T/C was 74.8% and 70%.

What about the viability, T/C (compound 10 µM) of the same compound?
Its viability, T/C is 40.1% and 39.5%.

And the IC50 (curve of compound)?
The IC50 was 7050 nM and 6680 nM.

How did the viability, T/C (compound 0.0316 µM) turn out when COc1cccc2c1C(=O)c1c(O)c3c(c(O)c1C2=O)CC(O)(C(=O)CO)CC3OC1CC(N)C(O)C(C)O1 (stereo not drawn) was run?
The viability, T/C was 32.3% and 23%.

What about the viability, T/C (compound 0.1 µM) of the same compound?
Its viability, T/C is 16.2%.

And the viability, T/C (compound 0.316 µM)?
The viability, T/C was 7.93% and 6.42%.

What about the viability, T/C (compound 1 µM) of the same compound?
Its viability, T/C is 0.61% and 0.54%.

And the viability, T/C (compound 3.16 µM)?
Its viability, T/C is 0.12% and 0.15%.

What about the viability, T/C (compound 10 µM) of the same compound?
Its viability, T/C is 0.13% and 0.14%.

And the IC50 (curve of compound)?
The IC50 was under 31.6 nM.

C=CC(=O)N1CCN(c2nc(=O)n(-c3c(C)ccnc3C(C)C)c3nc(-c4c(O)cccc4F)c(F)cc23)C(C)C1 (stereo not drawn) + CN1CCN(c2cc(C(=O)Nc3cc4cc(-c5cnn(C)c5)ccc4cn3)ccn2)CC1 was tested. Which IC50 (curve of first compound, second compound 0.0316 µM) did it give?
Its IC50 is over 10000 nM.

And the IC50 (curve of first compound, second compound 0.1 µM)?
The IC50 was over 10000 nM.

And the IC50 (curve of first compound, second compound 0.316 µM)?
Its IC50 is 1030 nM.

And the IC50 (curve of first compound, second compound 1 µM)?
The IC50 was under 31.6 nM.

And the IC50 (curve of first compound, second compound 3.16 µM)?
The IC50 was under 31.6 nM.

And the IC50 (curve of first compound, second compound 10 µM)?
The IC50 was under 31.6 nM.

What about the viability, T/C (second compound 0.0316 µM, first compound 0.0316 µM) of the same compound?
Its viability, T/C is 109%.

And the viability, T/C (second compound 0.0316 µM, first compound 0.1 µM)?
The viability, T/C was 113%.

And the viability, T/C (second compound 0.0316 µM, first compound 0.316 µM)?
The viability, T/C was 104%.

What about the viability, T/C (second compound 0.0316 µM, first compound 1 µM) of the same compound?
The viability, T/C was 115%.

What about the viability, T/C (second compound 0.0316 µM, first compound 3.16 µM) of the same compound?
Its viability, T/C is 108%.

And the viability, T/C (second compound 0.0316 µM, first compound 10 µM)?
Its viability, T/C is 89%.

What about the viability, T/C (second compound 0.1 µM, first compound 0.0316 µM) of the same compound?
Its viability, T/C is 89.6%.

What about the viability, T/C (second compound 0.1 µM, first compound 0.1 µM) of the same compound?
Its viability, T/C is 99.5%.

And the viability, T/C (second compound 0.1 µM, first compound 0.316 µM)?
The viability, T/C was 99.4%.

What about the viability, T/C (second compound 0.1 µM, first compound 1 µM) of the same compound?
The viability, T/C was 114%.

What about the viability, T/C (second compound 0.1 µM, first compound 3.16 µM) of the same compound?
Its viability, T/C is 98.9%.

What about the viability, T/C (second compound 0.1 µM, first compound 10 µM) of the same compound?
Its viability, T/C is 102%.

And the viability, T/C (second compound 0.316 µM, first compound 0.0316 µM)?
The viability, T/C was 47.3%.

And the viability, T/C (second compound 0.316 µM, first compound 0.1 µM)?
The viability, T/C was 55.5%.

What about the viability, T/C (second compound 0.316 µM, first compound 0.316 µM) of the same compound?
Its viability, T/C is 50.5%.

And the viability, T/C (second compound 0.316 µM, first compound 1 µM)?
The viability, T/C was 50.4%.

And the viability, T/C (second compound 0.316 µM, first compound 3.16 µM)?
The viability, T/C was 38%.

And the viability, T/C (second compound 0.316 µM, first compound 10 µM)?
Its viability, T/C is 20.2%.

And the viability, T/C (second compound 1 µM, first compound 0.0316 µM)?
Its viability, T/C is 0.58%.

What about the viability, T/C (second compound 1 µM, first compound 0.1 µM) of the same compound?
The viability, T/C was 0.57%.

And the viability, T/C (second compound 1 µM, first compound 0.316 µM)?
Its viability, T/C is 0.3%.

And the viability, T/C (second compound 1 µM, first compound 1 µM)?
Its viability, T/C is 0.5%.

And the viability, T/C (second compound 1 µM, first compound 3.16 µM)?
Its viability, T/C is 0.34%.

And the viability, T/C (second compound 1 µM, first compound 10 µM)?
The viability, T/C was 0.13%.

And the viability, T/C (second compound 3.16 µM, first compound 0.0316 µM)?
The viability, T/C was 0.13%.

And the viability, T/C (second compound 3.16 µM, first compound 0.1 µM)?
The viability, T/C was 0.17%.

And the viability, T/C (second compound 3.16 µM, first compound 0.316 µM)?
Its viability, T/C is 0.14%.

And the viability, T/C (second compound 3.16 µM, first compound 1 µM)?
The viability, T/C was 0.13%.

And the viability, T/C (second compound 3.16 µM, first compound 3.16 µM)?
The viability, T/C was 0.11%.

And the viability, T/C (second compound 3.16 µM, first compound 10 µM)?
Its viability, T/C is 0.11%.

And the viability, T/C (second compound 10 µM, first compound 0.0316 µM)?
The viability, T/C was 0.15%.

And the viability, T/C (second compound 10 µM, first compound 0.1 µM)?
Its viability, T/C is 0.19%.

What about the viability, T/C (second compound 10 µM, first compound 0.316 µM) of the same compound?
Its viability, T/C is 0.16%.

What about the viability, T/C (second compound 10 µM, first compound 1 µM) of the same compound?
The viability, T/C was 0.18%.

What about the viability, T/C (second compound 10 µM, first compound 3.16 µM) of the same compound?
Its viability, T/C is 0.22%.

What about the viability, T/C (second compound 10 µM, first compound 10 µM) of the same compound?
Its viability, T/C is 0.15%.
